Test results reported in paper PMC10009755, “Discovery and Characterization of BAY-805, a Potent and Selective Inhibitor of Ubiquitin-Specific Protease USP21” (Journal of Medicinal Chemistry, 2023).
Converted amounts (≈) assume the structure as drawn. Where two headings read alike, the source gives them in different places.

Experiments:
USP21 [1] = biological target: T1, USP21 (Homo sapiens, UniProt Q9UK80)
T1 sequence (Q9UK80 1-565): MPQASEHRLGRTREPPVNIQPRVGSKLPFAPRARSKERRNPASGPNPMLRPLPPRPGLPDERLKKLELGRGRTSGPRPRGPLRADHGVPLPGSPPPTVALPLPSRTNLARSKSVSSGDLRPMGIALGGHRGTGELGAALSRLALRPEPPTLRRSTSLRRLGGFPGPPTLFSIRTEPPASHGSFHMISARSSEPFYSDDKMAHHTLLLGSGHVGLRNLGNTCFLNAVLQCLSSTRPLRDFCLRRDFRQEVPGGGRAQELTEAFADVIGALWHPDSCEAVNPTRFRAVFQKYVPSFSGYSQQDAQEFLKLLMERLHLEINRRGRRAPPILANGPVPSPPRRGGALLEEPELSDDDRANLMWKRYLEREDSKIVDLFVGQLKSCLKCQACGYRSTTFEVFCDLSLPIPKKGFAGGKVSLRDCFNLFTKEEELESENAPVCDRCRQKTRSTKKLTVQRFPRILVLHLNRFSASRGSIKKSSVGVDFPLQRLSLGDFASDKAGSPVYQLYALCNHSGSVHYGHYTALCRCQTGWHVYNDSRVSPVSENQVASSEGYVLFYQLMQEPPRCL
Procedure: To this end, we developed a USP21 activity assay that is based on the deubiquitination of a STING-derived peptide (a USP21-specific substrate[17],[18]) by purified recombinant human full-length USP21 using time-resolved fluorescence resonance energy transfer (TR-FRET) technology (referred to as a homogeneous time-resolved fluorescence (HTRF)-assay, for details see the Supporting Information).[39]
All substrate and enzyme solutions were diluted in an assay buffer. […] Incubation time was 15–20 min at room temperature. […] The stop solution (DUB inhibitor PR619, Abcam) was prepared in 25 mM HEPES, pH 7.5 (Alfa Aesar) containing 0.01% BSA and then left for 10 min at room temperature before filtering with a 0.2 μM PES Membrane (Thermo Fisher). The reaction was stopped with the addition of 2 μL of 200 μM PR619. […] The plates were measured on the ViewLux in screening or PHERAstar FSX in compound profiling. […] The number of flashes per well was set to 3. All of the experimental data were plotted using Genedata analysis. The Z′-factor and S/B of the assay were >0.7 and ∼2, respectively.

log D measurement (HPLC) = format: physicochemical; conditions: for chromatographic logD: reverse-phase HPLC, pH 7.5, pH 7.5, HPLC method, read-out: logD7.5; for logD7.5: pH 7.5, HPLC method
Procedure: log D values at pH 7.5 were recorded using an indirect method for determining hydrophobicity constants by reverse-phase HPLC. A series of compounds with well-known log D values were used for calibration. Test compounds were injected into the same HPLC system. The lipophilicity of compounds was then assessed by comparison to the calibration curve.

USP2 = biological target: T2, USP2 (Homo sapiens, UniProt O75604); assay: hUSP2 Ub-rhodamine 110 assay; format: biochemical; conditions: for IC50: arithmetic means of multiple measurements, read-out: IC50 hUSP2 Ub-Rhod
T2 construct: His tag
T2 sequence (O75604 259-605): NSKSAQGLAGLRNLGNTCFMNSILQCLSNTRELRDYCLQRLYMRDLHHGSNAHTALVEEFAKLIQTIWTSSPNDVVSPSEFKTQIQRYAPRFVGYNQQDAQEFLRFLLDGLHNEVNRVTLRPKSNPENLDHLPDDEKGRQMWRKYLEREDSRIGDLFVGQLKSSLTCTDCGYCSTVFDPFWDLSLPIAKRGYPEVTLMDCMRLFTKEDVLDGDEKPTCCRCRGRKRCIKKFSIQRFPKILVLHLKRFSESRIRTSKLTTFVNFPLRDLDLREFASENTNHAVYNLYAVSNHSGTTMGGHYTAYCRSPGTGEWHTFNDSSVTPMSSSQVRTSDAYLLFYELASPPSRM
Procedure: The final assay volume was 6 μL.

USP21 [2] = biological target: T1, USP21; remark: listed apart in the source
Procedure: The final assay volume was 6 μL. […] First, 2 μL of 1 nM USP21 (or selectivity enzyme) solution was added to the compound plate and preincubated for 15–20 min at room temperature. […] The reaction was stopped by 50 mM citric acid in 25 mM HEPES, pH 7.5, containing 0.01% BSA. […] The USP21 and USP22 were measured with five flashes and USP2 and USP7 in fly mode.

NF-κB activation = assay: NF-κB reporter assay; format: cell-based; conditions: HEK293T cells, up to 10 μM
Procedure: Yang and colleagues reported that USP21 inhibition induces NF-κB activation by preventing deubiquitination of RIP1.[15] K63 ubiquitinated RIP1 is required for NF-κB activation, and thus USP21-mediated deubiquitination of RIP1 shuts down the NF-κB pathway.
Four hours after replating, cells were treated with compounds or DMSO (note: DMSO concentrations were kept consistent across all cells). Promega Dual-Luciferase Reporter Assay kit was then used to prepare samples for Firefly and Renilla signal measurement on a CLARIOstar microplate reader (BMG) 20 h after compound treatment. Relative luciferase units were calculated by normalizing the Firefly signal to the background Renilla signal, followed by normalization to DMSO controls of wild-type USP21.

Aqueous solubility = format: physicochemical; conditions: PBS pH 6.5, pH 6.5, PBS pH 6.5
Procedure: Test compounds were applied as DMSO solutions or directly from powder. After the addition of the buffer, solutions were shaken at rt for 24 h. The undissolved material was removed by filtration or centrifugation. The compound dissolved in the supernatant was quantified by HPLC-UV or HPLC-MS/MS.

[3] = biological target: T3, C-terminal HiBiT-tagged USP21 (Homo sapiens, UniProt Q9UK80); assay: USP21 HiBiT CETSA; format: cell-based; conditions: 49 °C, HEK293T cells
T3 construct: expressed in transfected cells; host or cells: HEK293T
T3 sequence (Q9UK80 1-565): T1 sequence (Q9UK80 1-565)
Procedure: In particular, we utilized a HiBiT CETSA assay format[42],[43] conducted in intact HEK293T cells. Cells were transfected with USP21 fused to a small proluminescent NanoLuc HiBiT tag, which, when complemented with the Large BiT NanoLuc fragment, produces a quantifiable luminescence signal.
HEK293T cells were seeded in a six-well plate at 8 × 10^5 cells/well in 2 mL of DMEM supplemented with 10% FBS, penicillin (100 U/mL), and streptomycin (100 μg/mL) and transfected 4 h after seeding using an X-tremeGENE HP transfection reagent, following the manufacturer’s instructions with a total of 2 μg of plasmid constructs (C-terminally tagged USP21 HiBiT and empty pCDNA3.1 vector). […] The breathable paper adhesive film was then replaced with a PCR adhesive film, and cells were heated at indicated temperatures in an Applied Biosystems VeritiPro thermal cycler for 3 min, followed by 3 min incubation at rt before the addition of LgBiT solution (200 nM LgBiT, 2% NP-40, protease inhibitors (Roche cOmplete, ethylenediaminetetraacetic acid (EDTA)-free Protease Inhibitor) in OptiMEM no phenol red (Gibco)) to lyse cells.

in vitro = in vitro ADME; conditions: human, Caco-2, pH 7.2
Procedure: Caco-2 cells [purchased from the German Collection of Microorganisms and Cell Cultures (DSMZ)] were seeded at a density of 4.5 × 10^4 cells/well on 24-well insert plates [0.4 μm pore size, 0.3 cm^2 (Costar)] and grown for 13–15 days in DMEM medium supplemented with 10% fetal calf serum (FCS), 1% GlutaMAX (100×, Gibco), 100 U/mL penicillin, 100 μg/mL streptomycin (Gibco), and 1% nonessential amino acids (100×, Thermo Fischer Scientific). […] The medium was changed every 2–3 days.
The bidirectional transport assay for the evaluation of Caco-2 permeability was undertaken in 24-well insert plates using a robotic system (Tecan). Before the assay was run, the culture medium was replaced by a transport medium (FCS-free HEPES carbonate transport buffer pH 7.2). For the assessment of monolayer integrity, the transepithelial electrical resistance (TEER) was measured. Only monolayers with a TEER of at least 400 Ω·cm^2 were used. Test compounds were pre-dissolved in DMSO and added either to the apical or basolateral compartment at a final concentration of 2 μM. The evaluation was performed in triplicate. […] The efflux ratio (ER) basolateral (B) to apical (A) was calculated by dividing Papp B–A by Papp A–B.

USP21 [4] = biological target: T1, USP21; assay: Thermal shift assay (TSA); format: binding; parameters: purchased Ubiquigent (DUBprofiler service); conditions: 100 μM compound
Procedure: Experiments were carried out with the QuantStudio7 Flex Real-Time PCR system (Thermo Fisher Scientific) in a 384-well plate format with 5 μL of reaction volume. Melting curves were obtained at an USP21 protein concentration of 3.8 μM and 5xSYPRO Orange (Invitrogen) using a buffer containing 20 mM Tris, pH 7.5; 150 mM NaCl; 10% glycerol; and 1.0 mM TCEP. […] For binding experiments, compounds were added from 10 mM stock solution to a final concentration of 100 μM. As a control, 1% DMSO was used. Scans were measured from 25 to 95 °C at a scanning rate of 4 °C/min. All TSA data were analyzed using a Genedata Assay Analyzer.

IC50 (USP21 [1]) [µM] | chromatographic logD (log D measurement (HPLC)) | IC50 (USP2) [µM] | IC50 (USP21 [2]) [µM] | solubility at 24 h (Aqueous solubility) [µM] | Compound | further results
– | 2.6 | > 25 | – | – | COCC(NC(=O)C1CCCCC1)C(=O)Nc1nnc(Cc2ccc([N+](=O)[O-])cc2)s1 (stereo not shown) [Compound 7, COCC(NC(=O)C1CCCCC1)C(=O)Nc2nnc(Cc3ccc(cc3)[N+](=O)[O-])s2] | –
> 25 | 2.8 | > 25 | > 25 | – | CC(C)C(NC(=O)C1CCCC1)C(=O)Nc1nnc(Cc2ccc([N+](=O)[O-])cc2)s1 (stereo not shown) [Compound 3, CC(C)C(NC(=O)C1CCCC1)C(=O)Nc2nnc(Cc3ccc(cc3)[N+](=O)[O-])s2] | ΔTm at 100 µM (USP21 [4]): 0.3 °C
– | 2.9 | – | – | 80.2 (≈ 40.9 µg/mL) | CC(C)(O)[C@@H](NC(=O)C1(C(F)(F)F)CCCCC1)C(=O)Nc1nnc(Cc2ccc(C#N)cc2)s1 [Compound 19, CC(C)(O)[C@@H](NC(=O)C1(CCCCC1)C(F)(F)F)C(=O)Nc2nnc(Cc3ccc(cc3)C#N)s2] | –
– | – | – | – | 19.4 (≈ 8.83 µg/mL) | COC[C@@H](NC(=O)C1(C)CCCCC1)C(=O)Nc1nc(C)c(Cc2ccc(C#N)cc2)s1 [Compound 12, COC[C@@H](NC(=O)C1(C)CCCCC1)C(=O)Nc2nc(C)c(Cc3ccc(cc3)C#N)s2] | –
21.5 | 2.59 | – | > 25 | 181 (≈ 82.9 µg/mL) | COC[C@@H](NC(=O)C1(OC)CCCCC1)C(=O)Nc1nnc(Cc2ccc(C#N)cc2)s1 [Compound 15, COC[C@@H](NC(=O)C1(CCCCC1)OC)C(=O)Nc2nnc(Cc3ccc(cc3)C#N)s2] | –
> 25 | 1.8 | > 25 | > 25 | – | COCC(NC(=O)C1CCOCC1)C(=O)Nc1nnc(Cc2ccc([N+](=O)[O-])cc2)s1 (stereo not shown) [Compound 8, COCC(NC(=O)C1CCOCC1)C(=O)Nc2nnc(Cc3ccc(cc3)[N+](=O)[O-])s2] | –
11.8 | 2.3 | > 25 | > 20.2 | – | COCC(NC(=O)c1ccccc1)C(=O)Nc1nnc(Cc2ccc([N+](=O)[O-])cc2)s1 (stereo not shown) [Compound 5, COCC(NC(=O)c1ccccc1)C(=O)Nc2nnc(Cc3ccc(cc3)[N+](=O)[O-])s2] | –
0.074 | – | > 25 | – | – | COC[C@@H](NC(=O)C1(C)CCCCC1)C(=O)Nc1nnc(Cc2ccc([N+](=O)[O-])cc2)s1 [Compound 10, COC[C@@H](NC(=O)C1(C)CCCCC1)C(=O)Nc2nnc(Cc3ccc(cc3)[N+](=O)[O-])s2] | –
– | 2.4 | – | – | – | COCC(NC(=O)C1CCCC1)C(=O)Nc1nnc(Cc2ccc([N+](=O)[O-])cc2)s1 (stereo not shown) [Compound 4, COCC(NC(=O)C1CCCC1)C(=O)Nc2nnc(Cc3ccc(cc3)[N+](=O)[O-])s2] | –

Continued, compound first:

Compound | IC50 (USP21 [1]) [µM] | chromatographic logD (log D measurement (HPLC)) | IC50 (USP2) [µM] | IC50 (USP21 [2]) [µM] | solubility at 24 h (Aqueous solubility) [µM] | further results
COCC(NC(=O)C(C)C)C(=O)Nc1nnc(Cc2ccc([N+](=O)[O-])cc2)s1 (stereo not shown) [Compound 6, COCC(NC(=O)C(C)C)C(=O)Nc1nnc(Cc2ccc(cc2)[N+](=O)[O-])s1] | > 25 | 2 | > 25 | > 25 | – | –
COC[C@@H](NC(=O)C1(C)CCCCC1)C(=O)Nc1nnc(Cc2ccc(C#N)cc2)s1 [Compound 11, COC[C@@H](NC(=O)C1(C)CCCCC1)C(=O)Nc2nnc(Cc3ccc(cc3)C#N)s2] | – | 2.7 | > 25 | – | 126 (≈ 55.8 µg/mL) | logD7.5 (log D measurement (HPLC)): 2.69; selectivity against USP2 (USP2; vs USP21): > 780 fold; NF-κB activation (in words) (NF-κB activation): no NF-κB activation up to a concentration of 10 μM; cellular thermal stabilization of USP21 (in words) [3]: strong stabilization of USP21
COC[C@@H](NC(=O)C1(C(F)(F)F)CCCCC1)C(=O)Nc1nnc(Cc2ccc(C#N)cc2)s1 [Compound 17, COC[C@@H](NC(=O)C1(CCCCC1)C(F)(F)F)C(=O)Nc2nnc(Cc3ccc(cc3)C#N)s2] | – | 2.95 | – | – | 10.4 (≈ 5.17 µg/mL) | logD7.5 (log D measurement (HPLC)): 3.0; Papp A→B at 2 h, 2 µM (in vitro; 2 μM, 2 h): 8.2 ×10⁻⁶ cm/s; efflux ratio at 2 h, 2 µM (in vitro; Papp B–A / Papp A–B, read-out: Caco-2 efflux ratio (ER)): 1.5
COC[C@@H](NC(=O)C1(C)CCCCC1)C(=O)Nc1sc(Cc2ccc(C#N)cc2)nc1C [Compound 13, COC[C@@H](NC(=O)C1(C)CCCCC1)C(=O)Nc2sc(Cc3ccc(cc3)C#N)nc2C] | 0.065 | – | – | > 25 | – | –
COC[C@@H](NC(=O)C1(C(F)F)CCCCC1)C(=O)Nc1nnc(Cc2ccc(C#N)cc2)s1 [Compound 16, COC[C@@H](NC(=O)C1(CCCCC1)C(F)F)C(=O)Nc2nnc(Cc3ccc(cc3)C#N)s2] | – | 2.68 | – | – | 131 (≈ 62.5 µg/mL) | –
COCC(NC(=O)C1(C)CCCCC1)C(=O)Nc1nnc(Cc2ccc([N+](=O)[O-])cc2)s1 (stereo not shown) [Compound 9, COCC(NC(=O)C1(C)CCCCC1)C(=O)Nc2nnc(Cc3ccc(cc3)[N+](=O)[O-])s2] | – | 2.9 | > 25 | – | – | –
CCC1(C(=O)N[C@H](COC)C(=O)Nc2nnc(Cc3ccc(C#N)cc3)s2)CCCCC1 [Compound 14, CCC1(CCCCC1)C(=O)N[C@H](COC)C(=O)Nc2nnc(Cc3ccc(cc3)C#N)s2] | – | 2.95 | – | – | 71 (≈ 32.4 µg/mL) | –
